According to patent US10751381B2, “Composition for preventing, relieving or treating colitis, containing complex extracts” (UNIVERSITY-INDUSTRY COOPERATION GROUP OF KYUNG HEE …, priority 2013, dated 2020):

Columns and labels:
Format in all cases: in vivo, mice (C57BL/6)
[1] = tested on: model animals with acute colitis induced by TNBS; experiment: Acute colitis induced by TNBS in mice, primary experiment: weight change, colon appearance score, colon length; details: TNBS-treated mice, 10 mg/kg orally once daily for 3 days, percentage to normal group (saline, no TNBS)
Protocol: All the mice were bred under the controlled environmental conditions of 50±10% of humidity at a temperature of 20° C. to 22° C., and the lighting was provided by repeatedly turning on for 12 hours followed by turning off for 12 hours. A feed for a standard experiment (Samyang, Korea) was used as a feed, and ad libitum access to water was allowed. In all experiments, each group consisted of 6 mice. […] Meanwhile, for the normal group, 0.1 mL of normal saline solution was orally administered. Subsequently, from the following day, the sample dissolved in normal saline solution was orally administered at a predetermined volume once daily for 3 days. On the following day after completing the sample administration, the experimental animals were suffocated to death with carbon dioxide, and the colon from the appendix to the region immediately before the anus was removed from the colon region. In this case, as a drug sample, the experiments using the butanol-soluble fraction of the Anemarrhena asphodeloides Bunge extract, mangiferin, and a combined extract were separately performed with time intervals, respectively, and the effects of the drug samples on preventing or treating colitis were reasonably analyzed based on the group supplied with normal saline solution instead of a specific drug in the model animals not treated with TNBS, for each of the experiments. The sample administration to the model animals with colitis induced by TNBS was stopped, and on the following day, the weight of the experimental animals was measured, and the measured weight was compared with the initial weight to calculate the amount of change in weight. The scores about the removed colons were estimated by observing the appearances and the length of the colons according to the following criteria (Hollenbach, et al., the criteria about the colitis level in 2005) as listed in Table 1. In this case, as a positive control group, the group administered with Mesalazine® (Sigma) was used. […]

Myeloperoxidase (MPO) [2] = experiment: MPO activity in colon tissue (ELISA kit), TNBS acute colitis, primary experiment; details: TNBS-treated mice, 10 mg/kg orally once daily for 3 days, percentage to normal group
Protocol: (§1) Among the experimental groups, one group was set as a normal group, and the experimental animals in other groups were induced with acute colitis by 2,4,6-trinitrobenzenesulfonic acid (TNBS). In detail, after lightly anesthetizing the experimental animals with ether, 0.1 mL of the solution prepared by mixing 2.5 g of 2,4,6-Trinitrobenzene sulfonic acid (NBS) solution with 50% ethanol was injected into the colon through the anus using a syringe having 1 mL volume and an oval point, respectively; the syringe was vertically picked up, and then, maintained for 30 seconds to induce inflammation. Meanwhile, for the normal group, 0.1 mL of normal saline solution was orally administered. […] In this case, as a drug sample, the experiments using the butanol-soluble fraction of the Anemarrhena asphodeloides Bunge extract, mangiferin, and a combined extract were separately performed with time intervals, respectively, and the effects of the drug samples on preventing or treating colitis were reasonably analyzed based on the group supplied with normal saline solution instead of a specific drug in the model animals not treated with TNBS, for each of the experiments.
100 mg of colon tissues were homogenized after adding 200 μL of lysis buffer thereto. […] Subsequently, 100 μL of a stop solution was added to terminate the reaction, and the absorbance was measured at 450 nm using an ELISA reader.

TNF-α = TNF-α expression in colon tissue (ELISA), TNBS acute colitis, primary experiment; details: TNBS-treated mice, 10 mg/kg orally once daily for 3 days, percentage to normal group
Protocol: as §1, with “administered. Subsequently, from the following day, the sample dissolved in normal saline solution was orally administered at a predetermined volume once daily for 3 days.” for “administered.”, “experiments. […]” for “experiments.”

IL-1β = IL-1β expression in colon tissue (ELISA), TNBS acute colitis, primary experiment; details: TNBS-treated mice, 10 mg/kg orally once daily for 3 days, percentage to normal group
Protocol: as §1, with “administered. Subsequently, from the following day, the sample dissolved in normal saline solution was orally administered at a predetermined volume once daily for 3 days.” for “administered.”, “experiments. […]” for “experiments.”

IL-6 = IL-6 expression in colon tissue (ELISA), TNBS acute colitis, primary experiment; details: TNBS-treated mice, 10 mg/kg orally once daily for 3 days, percentage to normal group
Protocol: as §1, with “administered. Subsequently, from the following day, the sample dissolved in normal saline solution was orally administered at a predetermined volume once daily for 3 days.” for “administered.”, “experiments. […]” for “experiments.”

IL-10 = IL-10 expression in colon tissue (ELISA), TNBS acute colitis, primary experiment; details: TNBS-treated mice, 10 mg/kg orally once daily for 3 days, percentage to normal group
Protocol: as §1, with “administered. Subsequently, from the following day, the sample dissolved in normal saline solution was orally administered at a predetermined volume once daily for 3 days.” for “administered.”, “experiments. […]” for “experiments.”

[3] = tested on: model animals with acute colitis induced by TNBS; experiment: Acute colitis induced by TNBS in mice, secondary experiment (extract-based and fraction-based): weight change, colon length, macroscopic score; details: TNBS-treated mice, percentage to normal group
Protocol: All the mice were bred under the controlled environmental conditions of 50±10% of humidity at a temperature of 20° C. to 22° C., and the lighting was provided by repeatedly turning on for 12 hours followed by turning off for 12 hours. A feed for a standard experiment (Samyang, Korea) was used as a feed, and ad libitum access to water was allowed. In all experiments, each group consisted of 6 mice. […] Meanwhile, for the normal group, 0.1 mL of normal saline solution was orally administered. Subsequently, from the following day, the sample dissolved in normal saline solution was orally administered at a predetermined volume once daily for 3 days. On the following day after completing the sample administration, the experimental animals were suffocated to death with carbon dioxide, and the colon from the appendix to the region immediately before the anus was removed from the colon region. In this case, the experiments, where an ethanol extract of Anemarrhena asphodeloides Bunge, an ethanol extract of Coptis chinensis, a combined extract of the ethanol extract of Anemarrhena asphodeloides Bunge and the ethanol extract of Coptis chinensis, and a combined extract of a water extract of Anemarrhena asphodeloides Bunge and a water extract of Coptis chinensis were used as drug samples (hereinafter, “extract-based experiment”), and the experiments, where a butanol-soluble fraction of the ethanol extract of Anemarrhena asphodeloides Bunge, a butanol-soluble fraction of the ethanol extract of Coptis chinensis, and a combined extract of the butanol-soluble fraction of the ethanol extract of Anemarrhena asphodeloides Bunge and the butanol-soluble fraction of the ethanol extract of Coptis chinensis were used as drug samples (hereinafter, “fraction-based experiment”) were separately performed with time intervals, respectively. Considering the characteristics of animal experiments, it is reasonable that the effects of the drug samples on preventing or treating colitis be evaluated within each of the experiments and that the normal group supplied with saline solution instead of a specific drug sample, for the experimental animals not treated with TNBS, be used as a standard. The sample administration to the model animals with colitis induced by TNBS was stopped, and on the following day, the weight of the experimental animals was measured were and then compared with their initial weight to calculate the change in the amount of weight. The scores on the removed colons were estimated by observing the appearances and the length of the colons according to the criteria (Hollenbach et al., the criteria on the levels of colon in 2005) listed in Table 3. In this case, as a positive control group, the group administered with Mesalazine® (Sigma) was used. Additionally, a portion of the content in the colon was collected to analyze the intestinal microorganisms, and then stored in a freezer maintained at −80° C. From the tissues of colon, the content in the colon was completely removed and then the tissues of colon were washed with normal saline solution.

Myeloperoxidase (MPO) [4] = experiment: MPO activity in colon tissue (ELISA kit), TNBS acute colitis, secondary experiment; details: TNBS-treated mice, percentage to normal group
Protocol: Among the experimental groups, one group was set as a normal group, and the experimental animals in other groups were induced with acute colitis by 2,4,6-trinitrobenzenesulfonic acid (TNBS). In detail, after lightly anesthetizing the experimental animals with ether, 0.1 mL of the solution prepared by mixing 2.5 g of 2,4,6-Trinitrobenzene sulfonic acid (NBS) solution with 50% ethanol was injected into the colon through the anus using a syringe having 1 mL volume and an oval point, respectively; the syringe was vertically picked up, and then, maintained for 30 seconds to induce inflammation. Meanwhile, for the normal group, 0.1 mL of normal saline solution was orally administered. Subsequently, from the following day, the sample dissolved in normal saline solution was orally administered at a predetermined volume once daily for 3 days. On the following day after completing the sample administration, the experimental animals were suffocated to death with carbon dioxide, and the colon from the appendix to the region immediately before the anus was removed from the colon region. In this case, the experiments, where an ethanol extract of Anemarrhena asphodeloides Bunge, an ethanol extract of Coptis chinensis, a combined extract of the ethanol extract of Anemarrhena asphodeloides Bunge and the ethanol extract of Coptis chinensis, and a combined extract of a water extract of Anemarrhena asphodeloides Bunge and a water extract of Coptis chinensis were used as drug samples (hereinafter, “extract-based experiment”), and the experiments, where a butanol-soluble fraction of the ethanol extract of Anemarrhena asphodeloides Bunge, a butanol-soluble fraction of the ethanol extract of Coptis chinensis, and a combined extract of the butanol-soluble fraction of the ethanol extract of Anemarrhena asphodeloides Bunge and the butanol-soluble fraction of the ethanol extract of Coptis chinensis were used as drug samples (hereinafter, “fraction-based experiment”) were separately performed with time intervals, respectively. Considering the characteristics of animal experiments, it is reasonable that the effects of the drug samples on preventing or treating colitis be evaluated within each of the experiments and that the normal group supplied with saline solution instead of a specific drug sample, for the experimental animals not treated with TNBS, be used as a standard.
100 mg of colon tissues were homogenized after adding 200 μL of lysis buffer thereto. The homogenized colon tissues were centrifuged at 4° C. at a rate of 13000 rpm for 15 minutes, the supernatant therefrom was recovered, and the MPO activity was measured using a mouse MPO assay ELISA kit (Hbt HK210, USA). 100 μL of the supernatant was added into a 96-well plate and reacted at room temperature for 1 hour. Upon completion of the reaction, the plate was emptied by overturning, repeatedly washed three times with 200 μL of washing buffer, added with 100 μL of diluted tracer, and then the reaction was allowed to perform at room temperature for 1 hour. Upon completion of the reaction, the plate was emptied by overturning, and each well of the plate was washed using 200 μL of washing buffer. After repeatedly performing the washing process three times using 200 μL of washing buffer, 100 μL of diluted streptavidin-peroxidase conjugate was added thereto, and the reaction was allowed to perform at room temperature for 1 hour. Upon completion of the reaction, the plate was emptied by overturning, and each well of the plate was washed with 200 μL of washing buffer. After repeatedly washing three times using 200 μL of washing buffer, 100 μL of TMB substrate solution was added thereto, the plate was wrapped with an aluminum foil to block out the light, and the reaction was performed at room temperature for 30 minutes. Subsequently, 100 μL of a stop solution was added to terminate the reaction, and the absorbance was measured at 450 nm using an ELISA reader.

[5] = extract-based experiment, 10 mg/kg orally once daily for 3 days
[6] = extract-based experiment, 20 mg/kg orally once daily for 3 days
[7] = extract-based experiment, 50 mg/kg orally once daily for 3 days
[8] = fraction-based experiment, 10 mg/kg orally once daily for 3 days
[9] = fraction-based experiment, 20 mg/kg orally once daily for 3 days
[10] = fraction-based experiment, 50 mg/kg orally once daily for 3 days

`Nc1ccc(O)c(C(=O)O)c1` [Mesalazine ®, Mesalazine] gave a Body weight [1] of 93.2%, a Colon length [1] of 89.9% and a Macroscopic score [1] of 550.5%. For the same compound, the MPO activity (Myeloperoxidase (MPO) [2]) was 1111.6%, the TNF-α (TNF-α) was 304.1% and the IL-1β (IL-1β) was 618.4%. It also gave an IL-6 (IL-6) of 190.0%, an IL-10 (IL-10) of 53.1% and a Body weight [3, 5] of 59.46%. It also gave a Colon length [3, 5] of 89.06%, a Macroscopic score [3, 5] of 420% and a Body weight [3, 6] of 78.38%. The Colon length [3, 6] was 90.63%, the Macroscopic score [3, 6] was 420% and the Body weight [3, 7] was 75.68%. It also gave a Colon length [3, 7] of 90.63%, a Macroscopic score [3, 7] of 450% and a Body weight [3, 8] of 59.46%. For the same compound, the Colon length [3, 8] was 90.48%, the Macroscopic score [3, 8] was 500% and the Body weight [3, 9] was 78.38%. It also gave a Colon length [3, 9] of 92.06%, a Macroscopic score [3, 9] of 500% and a Body weight [3, 10] of 75.68%. It also gave a Colon length [3, 10] of 92.06%, a Macroscopic score [3, 10] of 600% and an MPO activity (Myeloperoxidase (MPO) [4]; [5]) of 360%. It also gave an MPO activity (Myeloperoxidase (MPO) [4]; [6]) of 360%, an MPO activity (Myeloperoxidase (MPO) [4]; [7]) of 390% and an MPO activity (Myeloperoxidase (MPO) [4]; [8]) of 300%. The MPO activity (Myeloperoxidase (MPO) [4]; [9]) was 300% and the MPO activity (Myeloperoxidase (MPO) [4]; [10]) was 317%.
